Assay: Human HepG2 cell viability assay in 384 well format
Assay type: toxicity, cell-based
Design: dose 125 nL, time 70.5 hour; cytotoxicity at 70.5 h: concentration not given beside the values
Conditions: HepG2 cells, read-out: Inhibition

Compared with `Cc1c(OCC(=O)NCc2ccccc2Cl)c(=O)ccn1C`, `Cc1nn(C)c(C)c1OCC(=O)NCc1cccc(CO)c1` is higher in cytotoxicity at 70.5 h: -23.2% for the first, 2.69% for the second.

Compared with `CC(C)c1nnc2sc(CC3CCS(=O)(=O)C3)nn12` (configuration not stated), `CC(C)C(=O)N1CCC2(COCc3cnc(-c4cccnc4)nc32)C1` (configuration not stated) is lower in cytotoxicity at 70.5 h: -7.56% for the first, -7.75% for the second.

First: Cc1cc(-c2cnn(CCNC(=O)CCn3cccn3)c2C2CC2)on1
Second: Cc1cc(C[C@@H]2COC[C@@H]2NC(=O)CCN2Cc3ccccc3C2)on1
The cytotoxicity at 70.5 h of the first is lower: -3.81% for the first, 11.4% for the second.

Going from `CN1CC2(CCCN(Cc3nnc(-c4ccccc4)o3)CC2)OC1=O` (configuration not stated) to `CCc1nn(C)c(Cl)c1CN1CCC2(C1)CN(C)C(=O)O2` (configuration not stated), the cytotoxicity at 70.5 h falls from -15% to -17.2%.

Going from `CC(NC(=O)NCCCN(C(C)C)S(C)(=O)=O)c1ccncc1` (configuration not stated) to `COc1cc2ncn(CC(=O)NCCCN(C)C)c(=O)c2cc1OC`, the cytotoxicity at 70.5 h falls from -2.51% to -6.49%.

Going from `O=C(c1ccc(Cl)cc1)N1CCCn2nnc(Cn3cccn3)c2C1` to `COc1ccc(C(C(=O)O)N2CCC(Cn3cccn3)CC2)c(OC)n1` (configuration not stated), the cytotoxicity at 70.5 h rises from 1.05% to 15.1%.

Going from `O=c1[nH]ncc(NCCOc2ccc3c(c2)CCC3)c1Cl` to `CS(=O)(=O)NCc1ccc2c(c1)CCC2`, the cytotoxicity at 70.5 h rises from -11.7% to -7.69%.

Going from `Cc1nccn1CC1CCCN1CCCc1nc(-c2cccs2)no1` (configuration not stated) to `CN(Cc1ccco1)[C@@H]1CN(Cc2nccn2C)[C@@H]2CCCO[C@H]12`, the cytotoxicity at 70.5 h falls from 9.19% to -8.73%.

First: CN1CCCN(C(=O)NCCNc2cnccn2)CC1
Second: O=C(Cc1ccc(F)cc1)NCCNc1cc(N2CCCC2)ncn1
The cytotoxicity at 70.5 h of the first is lower: -3.22% for the first, 22.2% for the second.

Compared with `COC1COC2(CCN(C(=O)c3ccccc3F)CC2)C1` (configuration not stated), `CN(C)CC(=O)N1CCC2(CC1)CN(c1ncccn1)CCO2` is higher in cytotoxicity at 70.5 h: -4.84% for the first, 5.39% for the second.

First: O=C(NCC(F)(F)C(F)F)c1cccnc1
Second: CCC(CO)N(Cc1cccnc1)C(=O)c1ccc(C)[nH]c1=O (configuration not stated)
The cytotoxicity at 70.5 h of the first is higher: -3.25% for the first, -7.73% for the second.

First: COCCN(Cc1nccs1)C(=O)c1cc(-c2ccc(C)o2)n[nH]1
Second: COCC(c1ccccn1)N(C)C(=O)c1cc(-c2ccccc2O)n[nH]1 (configuration not stated)
The cytotoxicity at 70.5 h of the first is lower: -11.2% for the first, -6.79% for the second.

Going from `Cc1cn2nc(N3CCN(Cc4c(C)noc4C)CC3)sc2n1` to `Cn1ccnc1CN1CCN(c2ccc(C#N)cn2)CC1`, the cytotoxicity at 70.5 h falls from 0.994% to -13.3%.

Going from `O[C@@H]1CN(c2nc3ccccc3o2)CC[C@H]1c1ccc2c(c1)OCO2` to `COc1cccc(CC(=O)N2CCC(c3ccn4nccc4n3)CC2)c1`, the cytotoxicity at 70.5 h falls from 14.9% to -3.73%.

Compared with `Cc1nc(C)n(CC2CCCN(Cc3ncc(C(C)(C)C)o3)C2)n1` (configuration not stated), `Cc1cccc(N2CCN(CCC(=O)NCc3cnc(C)cn3)CC2)c1` is higher in cytotoxicity at 70.5 h: 23% for the first, 23.9% for the second.

Compared with `CCCn1nnnc1COC(=O)C1COc2ccc(Cl)cc2C1` (configuration not stated), `CC(c1nc(C2CC2)no1)N(C)Cc1ccc(Cl)cc1` (configuration not stated) is higher in cytotoxicity at 70.5 h: -5.74% for the first, -3.08% for the second.

Compared with `Cc1cnn(CC(C)NCC(=O)Nc2ccc(Cl)cn2)c1` (configuration not stated), `CCC(CC)NC(=O)Cn1cc(-c2ccccc2)cn1` is lower in cytotoxicity at 70.5 h: -2.39% for the first, -2.71% for the second.

Compared with `NCC1CCC(c2c(C(=O)NCCO)sc3ccccc23)CC1` (configuration not stated), `Cc1csc(C(=O)NCCN2CCC(c3cccs3)CC2)c1` is higher in cytotoxicity at 70.5 h: 16.1% for the first, 35.6% for the second.

Going from `Cc1nc(Cn2c3c(ccc2=O)CC(NC(N)=O)CC3)cs1` (configuration not stated) to `CCCc1c(C(=O)NC2CCCC2)nnn1-c1ccc(OC)cc1`, the cytotoxicity at 70.5 h rises from 5.59% to 16.8%.

First: COc1cc(N2CCCC(c3ncc[nH]3)C2)ncn1 (configuration not stated)
Second: CN1CC(=O)N(C2CCNC2)Cc2c(NC3CCCC3)ncnc21 (configuration not stated)
The cytotoxicity at 70.5 h of the first is higher: -1.53% for the first, -5.19% for the second.

Compared with `CCOC(=O)CN1CCC(NC(=O)OC(C)(C)C)CC1`, `CS(=O)(=O)c1ccc(CNCC2CCN(CCO)CC2)cc1` is higher in cytotoxicity at 70.5 h: 14.9% for the first, 18.2% for the second.

Going from `CC(NC(=O)N(C)Cc1cccc(OC(F)F)c1)c1nncn1C` (configuration not stated) to `Cc1nn(C)c(N(C)C)c1CNCC(O)COc1ccccc1` (configuration not stated), the cytotoxicity at 70.5 h rises from -5.84% to -0.0724%.

Compared with `CC(=O)Nc1nc(C2CN(C(=O)C3CCC3)C2)cs1`, `CNc1ncc(CN(C)C(=O)[C@@]23CNC[C@@H]2CN(C2CCCC2)C3)cn1` is higher in cytotoxicity at 70.5 h: -7.1% for the first, -4.91% for the second.

First: O=S(=O)(C1CC1)N1CC[C@]2(C[C@@H](OCC3CCOCC3)CO2)C1
Second: O=C(NC1CCCCC1)N1CCCC1c1nnc2n1CCNC2 (configuration not stated)
The cytotoxicity at 70.5 h of the first is lower: -9.4% for the first, 19.4% for the second.

First: CCCN(CCC)CCNc1c(-c2ccccc2)c(=O)c1=O
Second: CCOc1ccccc1C(CC(=O)O)NC(C)=O (configuration not stated)
The cytotoxicity at 70.5 h of the first is higher: 1.06% for the first, -4.62% for the second.

Compared with `Cc1n[nH]c(C)c1CC(=O)N1CC[C@@](C)(O)[C@@H](Cc2ccccc2)C1`, `Cc1cc(CN2CCC(c3cc(Cc4ccccc4)n[nH]3)CC2)[nH]n1` is lower in cytotoxicity at 70.5 h: -16.1% for the first, -16.6% for the second.

Going from `COc1ccc(CC(=O)N(C)C2CCN(C)C2=O)cc1F` (configuration not stated) to `Cc1nnc2n1CCN(C(=O)c1cc3cc(F)ccc3[nH]1)C2`, the cytotoxicity at 70.5 h falls from -6.33% to -12.8%.

Going from `CC(C)[C@H]1COC(=O)N1CC(=O)N(C)CCCn1cccn1` to `Cc1nc2ccccn2c1CN1C[C@@H](CN(C)CCO)[C@@H](CO)C1`, the cytotoxicity at 70.5 h rises from -4.67% to 5.92%.

`OC(COCc1ccccc1Cl)CN1CC(n2cccn2)C1` (configuration not stated) showed a cytotoxicity at 70.5 h of 4.22%.
